Experimental data as given in US10898475B2, “Bach1 inhibitors in combination with Nrf2 activators and pharmaceutical compositions thereof” (vTv Therapeutics LLC, priority 2014, dated 2021).
Each block holds one compound with its values, some of them ahead of it.

Tested on: HMOX1 in Normal Human Lung Fibroblasts (NHLF)
Test: HMOX1 Protein Expression (immunostaining, fold induction or % positive cells over DMSO)
Conditions: for Hill slope of DMF dose response curves in Table 2: % Positive HMOX
[1] = Homo sapiens, Fibroblast, read-out: Fold Induction of HMOX

Fold Induction of HMOX (Cpd. 0.019 uM, DMF 0 uM): 1.24 fold | Fold Induction of HMOX (Cpd. 0.019 uM, DMF 0.03 uM): 1.17 fold | Fold Induction of HMOX (Cpd. 0.019 uM, DMF 0.1 uM): 1.13 fold | Fold Induction of HMOX (Cpd. 0.019 uM, DMF 0.3 uM): 1.43 fold | Fold Induction of HMOX (Cpd. 0.019 uM, DMF 1 uM): 1.57 fold | Fold Induction of HMOX (Cpd. 0.019 uM, DMF 3 uM): 2.98 fold | Fold Induction of HMOX (Cpd. 0.019 uM, DMF 10 uM): 4.94 fold | Fold Induction of HMOX (Cpd. 0.019 uM, DMF 30 uM): 4.23 fold | Fold Induction of HMOX (Cpd. 0.039 uM, DMF 0 uM): 1.45 fold | Fold Induction of HMOX (Cpd. 0.039 uM, DMF 0.03 uM): 1.07 fold | Fold Induction of HMOX (Cpd. 0.039 uM, DMF 0.1 uM): 1.08 fold | Fold Induction of HMOX (Cpd. 0.039 uM, DMF 0.3 uM): 1.59 fold | Fold Induction of HMOX (Cpd. 0.039 uM, DMF 1 uM): 1.97 fold | Fold Induction of HMOX (Cpd. 0.039 uM, DMF 3 uM): 2.84 fold | Fold Induction of HMOX (Cpd. 0.039 uM, DMF 10 uM): 4.86 fold | Fold Induction of HMOX (Cpd. 0.039 uM, DMF 30 uM): 4.82 fold | Fold Induction of HMOX (Cpd. 0.078 uM, DMF 0 uM): 1.46 fold | Fold Induction of HMOX (Cpd. 0.078 uM, DMF 0.03 uM): 1.12 fold | Fold Induction of HMOX (Cpd. 0.078 uM, DMF 0.1 uM): 1.21 fold | Fold Induction of HMOX (Cpd. 0.078 uM, DMF 0.3 uM): 1.43 fold | Fold Induction of HMOX (Cpd. 0.078 uM, DMF 1 uM): 2.29 fold | Fold Induction of HMOX (Cpd. 0.078 uM, DMF 3 uM): 3.12 fold | Fold Induction of HMOX (Cpd. 0.078 uM, DMF 10 uM): 5.06 fold | Fold Induction of HMOX (Cpd. 0.078 uM, DMF 30 uM): 4.52 fold | Fold Induction of HMOX (Cpd. 0.156 uM, DMF 0 uM): 1.96 fold | Fold Induction of HMOX (Cpd. 0.156 uM, DMF 0.03 uM): 1.46 fold | Fold Induction of HMOX (Cpd. 0.156 uM, DMF 0.1 uM): 1.73 fold | Fold Induction of HMOX (Cpd. 0.156 uM, DMF 0.3 uM): 2.06 fold | Fold Induction of HMOX (Cpd. 0.156 uM, DMF 1 uM): 2.87 fold | Fold Induction of HMOX (Cpd. 0.156 uM, DMF 3 uM): 3.63 fold | Fold Induction of HMOX (Cpd. 0.156 uM, DMF 10 uM): 5.58 fold | Fold Induction of HMOX (Cpd. 0.156 uM, DMF 30 uM): 4.99 fold
SMILES: COCCNC(=O)c1cnc2c(c1)nc(Nc1nc3ccc(OC(F)(F)F)cc3s1)n2C [HPP-B, 3-Methyl-2-(6-trifluoromethoxy-benzothiazol-2-ylamino)-3H-imidazo[4,5-b]pyridine-6-carboxylic acid (2-methoxy-ethyl)-amide]
Hill slope of DMF dose response curves in Table 2 (Bach1 Inhibitor Conc. 0.019 uM): 2.14 | Hill slope of DMF dose response curves in Table 2 (Bach1 Inhibitor Conc. 0.039 uM): 1.87 | Hill slope of DMF dose response curves in Table 2 (Bach1 Inhibitor Conc. 0.078 uM): 1.25 | Hill slope of DMF dose response curves in Table 2 (Bach1 Inhibitor Conc. 0.156 uM): 1.12 | % Cells Positive HMOX (Cpd. 0.019 uM, DMF 0 uM): 2.31% | % Cells Positive HMOX (Cpd. 0.019 uM, DMF 0.03 uM): 1.80% | % Cells Positive HMOX (Cpd. 0.019 uM, DMF 0.1 uM): 2.55% | % Cells Positive HMOX (Cpd. 0.019 uM, DMF 0.3 uM): 8.27% | % Cells Positive HMOX (Cpd. 0.019 uM, DMF 1 uM): 7.52% | % Cells Positive HMOX (Cpd. 0.019 uM, DMF 3 uM): 54.65% | % Cells Positive HMOX (Cpd. 0.019 uM, DMF 10 uM): 92.63% | % Cells Positive HMOX (Cpd. 0.019 uM, DMF 30 uM): 84.93% | % Cells Positive HMOX (Cpd. 0.039 uM, DMF 0 uM): 5.30% | % Cells Positive HMOX (Cpd. 0.039 uM, DMF 0.03 uM): 1.53% | % Cells Positive HMOX (Cpd. 0.039 uM, DMF 0.1 uM): 2.54% | % Cells Positive HMOX (Cpd. 0.039 uM, DMF 0.3 uM): 13.04% | % Cells Positive HMOX (Cpd. 0.039 uM, DMF 1 uM): 23.13% | % Cells Positive HMOX (Cpd. 0.039 uM, DMF 3 uM): 75.79% | % Cells Positive HMOX (Cpd. 0.039 uM, DMF 10 uM): 91.99% | % Cells Positive HMOX (Cpd. 0.039 uM, DMF 30 uM): 87.54% | % Cells Positive HMOX (Cpd. 0.078 uM, DMF 0 uM): 8.23% | % Cells Positive HMOX (Cpd. 0.078 uM, DMF 0.03 uM): 1.72% | % Cells Positive HMOX (Cpd. 0.078 uM, DMF 0.1 uM): 7.05% | % Cells Positive HMOX (Cpd. 0.078 uM, DMF 0.3 uM): 10.31% | % Cells Positive HMOX (Cpd. 0.078 uM, DMF 1 uM): 29.42% | % Cells Positive HMOX (Cpd. 0.078 uM, DMF 3 uM): 55.22% | % Cells Positive HMOX (Cpd. 0.078 uM, DMF 10 uM): 94.55% | % Cells Positive HMOX (Cpd. 0.078 uM, DMF 30 uM): 86.84% | % Cells Positive HMOX (Cpd. 0.156 uM, DMF 0 uM): 11.32% | % Cells Positive HMOX (Cpd. 0.156 uM, DMF 0.03 uM): 8.51% | % Cells Positive HMOX (Cpd. 0.156 uM, DMF 0.1 uM): 18.49% | % Cells Positive HMOX (Cpd. 0.156 uM, DMF 0.3 uM): 30.11% | % Cells Positive HMOX (Cpd. 0.156 uM, DMF 1 uM): 57.70% | % Cells Positive HMOX (Cpd. 0.156 uM, DMF 3 uM): 79.63% | % Cells Positive HMOX (Cpd. 0.156 uM, DMF 10 uM): 99.72% | % Cells Positive HMOX (Cpd. 0.156 uM, DMF 30 uM): 98.17% | combination effect in terms of the % HMOX positive cells (combination with DMF at concentrations below their maximum effect (Table 2)): additive or greater than additive | change of Hill slope of the DMF dose response curve (FIG. 5) (upon increasing amounts of the Bach1 Inhibitor): reduced

SMILES: COC(=O)[C@]12CCC(C)(C)C[C@H]1[C@H]1C(=O)C=C3[C@@]4(C)C=C(C#N)C(=O)C(C)(C)[C@@H]4CC[C@@]3(C)[C@]1(C)CC2 [Bardoxolone Methyl, methyl 2-cyano-3,12-dioxooleana-1,9(11)dien-28-oate, reference compound]
increase HMOX1 (FIG. 1 bar B) (9.7 nM CDDO-Me alone): 2.5 fold | induction of HMOX1 protein (CDDO-Me alone, greater than or equal to 156 nM): 19 fold | fold induction at 0.0024 µM [1]: 1.31 | fold induction at 0.0048 µM [1]: 1.59 | fold induction at 0.0097 µM [1]: 2.53 | fold induction at 0.019 µM [1]: 5 | fold induction at 0.039 µM [1]: 8.48 | fold induction at 0.078 µM [1]: 12.2 | fold induction at 0.156 µM [1]: 19 | fold induction at 0.312 µM [1]: 16.4
